Data from US11780826B2 (Amgen Inc., priority 2017, dated 2023).

System: Bovine cardiac myofibrils
Assay: In vitro model of dose-dependent myofibril ATPase modulation (AC1.4, pyruvate kinase/lactate dehydrogenase-coupled ATPase assay at pCa25)
Assay type: biochemical
Conditions: concentration at which ATPase activity was 1.4-fold higher than the bottom of the dose curve, mean of a minimum of two independent tests
Summary of the method: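 Bovine cardiac myofibrils, detergent-treated; 0.25-1.0 mg/ml. Buffer: K-PIPES 12 mM, MgCl2 2 mM, DTT 1 mM, BSA 0.1 mg/ml, pH 6.80, 22° C; Ca2+ set by EGTA/CaCl2. ATP 1 mM, NADH/PEP-coupled, A340. 4-parameter fit; n≥2.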

AC1.4	Structure (SMILES)
2.168 µM	O=C(NCc1ccc(C(F)(F)F)cc1)[C@H]1CCCN1C(=O)[C@H]1CCCN(S(=O)(=O)N2CC(C3CCC3)C2)C1 [Example 483, 1-(((3S)-1-((3-cyclobutyl-1-azetidinyl)sulfonyl)-3-piperidinyl)carbonyl)-N-(4-(trifluoromethyl)benzyl)-D-prolinamide]
1.1445 µM	N#Cc1cccc(C(=O)N2[C@@H](C(=O)N[C@@H](c3ccc(C(F)(F)F)cc3F)C3COC3)C[C@H]3C[C@H]32)c1 [Example 366, (1R,3R,5R)-2-(3-cyanobenzoyl)-N-((R)-(2-fluoro-4-(trifluoromethyl)phenyl)(3-oxetanyl)methyl)-2-azabicyclo[3.1.0]hexane-3-carboxamide]
3.714 µM	Cc1cccc(F)c1CNC(=O)[C@H]1CCCN1C(=O)[C@H]1CCCN(S(=O)(=O)N2CC(C#N)C2)C1 [Example 607, 1-(((3S)-1-((3-cyano-1-azetidinyl)sulfonyl)-3-piperidinyl)carbonyl)-N-(2-fluoro-6-methylbenzyl)-D-prolinamide]
1.0398 µM	N#CC1CN(S(=O)(=O)N2CCC[C@H](C(=O)N3CCC[C@@H]3C(=O)NCc3cccc(C(F)(F)F)c3)C2)C1 [Example 353, 1-(((3S)-1-((3-cyano-1-azetidinyl)sulfonyl)-3-piperidinyl)carbonyl)-N-(3-(trifluoromethyl)benzyl)-D-prolinamide]
2.256 µM	COC1CN(S(=O)(=O)N2CCC[C@H](C(=O)N3CCC[C@@H]3C(=O)NCc3ccc(C(F)(F)F)cc3)C2)C1 [Example 492, 1-(((3S)-1-((3-methoxy-1-azetidinyl)sulfonyl)-3-piperidinyl)carbonyl)-N-(4-(trifluoromethyl)benzyl)-D-prolinamide]
1.4853 µM	N#CC1CN(S(=O)(=O)N2CCC[C@H](C(=O)N3CCC[C@@H]3C(=O)NCc3ccc(C(F)(F)F)nc3)C2)C1 [Example 410, 1-(((3S)-1-((3-cyano-1-azetidinyl)sulfonyl)-3-piperidinyl)carbonyl)-N-((6-(trifluoromethyl)-3-pyridinyl)methyl)-D-prolinamide]
6.475 µM	CS(=O)(=O)N1CCN[C@H](C(=O)N2[C@@H](C(=O)N[C@@H](c3cc(F)c(Cl)cc3F)C3CC3)C[C@H]3C[C@H]32)C1 [Example 724, (1R,3R,5R)-N-((R)-(4-chloro-2,5-difluorophenyl)(cyclopropyl)methyl)-2-(((2S)-4-(methylsulfonyl)-2-piperazinyl)carbonyl)-2-azabicyclo[3.1.0]hexane-3-carboxamide]
4.082 µM	O=C(NCc1ccc(C(F)(F)F)cc1)[C@H]1CCCN1C(=O)[C@H]1CCCN(S(=O)(=O)N2CC(O)C2)C1 [Example 631, 1-(((3S)-1-((3-hydroxy-1-azetidinyl)sulfonyl)-3-piperidinyl)carbonyl)-N-(4-(trifluoromethyl)benzyl)-D-prolinamide]
5.084 µM	Cc1ccc([C@H](NC(=O)[C@H]2C[C@H]3C[C@H]3N2C(=O)c2cccc(S(C)(=O)=O)c2)C2CC2)cc1F [Example 810, (1R,3R,5R)-N-((R)-cyclopropyl(3-fluoro-4-methylphenyl)methyl)-2-(3-(methylsulfonyl)benzoyl)-2-azabicyclo[3.1.0]hexane-3-carboxamide]
2.344 µM	CS(=O)(=O)C1CN(S(=O)(=O)N2CCC[C@H](C(=O)N3CCC[C@@H]3C(=O)NCc3ccc(C(F)(F)F)cn3)C2)C1 [Example 499, 1-(((3S)-1-((3-(methylsulfonyl)-1-azetidinyl)sulfonyl)-3-piperidinyl)carbonyl)-N-((5-(trifluoromethyl)-2-pyridinyl)methyl)-D-prolinamide]
0.0216 µM	CC[C@@H](NC(=O)[C@H]1CCCN1C(=O)c1cccc(S(=O)(=O)N2CC(C#N)C2)c1)c1ccc(C(F)(F)F)cc1F [Example 12, 1-(3-((3-cyano-1-azetidinyl)sulfonyl)benzoyl)-N-((1R)-1-(2-fluoro-4-(trifluoromethyl)phenyl)propyl)-D-prolinamide]
2.7115 µM	CS(=O)(=O)c1cccc(C(=O)N2[C@@H](C(=O)N[C@@H](c3ccc(C(F)(F)F)cc3F)C3(O)CC3)C[C@H]3C[C@H]32)c1 [Example 559, (1R,3R,5R)-N-((S)-(2-fluoro-4-(trifluoromethyl)phenyl)(1-hydroxycyclopropyl)methyl)-2-(3-(methylsulfonyl)benzoyl)-2-azabicyclo[3.1.0]hexane-3-carboxamrde]
1.237 µM	N#CC1CN(S(=O)(=O)N2CCC[C@H](C(=O)N3CCC[C@@H]3C(=O)NCc3cc(F)cc(C(F)(F)F)c3)C2)C1 [Example 379, 1-(((3S)-1-((3-cyano-1-azetidinyl)sulfonyl)-3-piperidinyl)carbonyl)-N-(3-fluoro-5-(trifluoromethyl)benzyl)-D-prolinamide]
1.807 µM	Cc1ccc(C(=O)N2[C@@H](C(=O)N[C@@H](c3cc(F)c(Cl)cc3F)C3COC3)C[C@H]3C[C@H]32)cc1S(C)(=O)=O [Example 472, (1R,3R,5R)-N-((R)-(4-chloro-2,5-difluorophenyl)(3-oxetanyl)methyl)-2-(4-methyl-3-(methylsulfonyl)benzoyl)-2-azabicyclo[3.1.0]hexane-3-carboxamide]
0.1008 µM	Cc1ccc(CNC(=O)[C@H]2CCCN2C(=O)c2cccc(S(=O)(=O)N3CC(C#N)C3)c2)c(F)c1 [Example 76, 1-((3-((3-cyano-1-azetidinyl)sulfonyl)phenyl)carbonyl)-N-(2-fluoro-4-methylbenzyl)-D-prolinamide]
0.2267 µM	Cc1cc(CNC(=O)[C@H]2CCCN2C(=O)[C@H]2CCCN(S(=O)(=O)N3CC(C#N)C3)C2)ccc1Cl [Example 137, N-(4-chloro-3-methylbenzyl)-1-(((3S)-1-((3-cyano-1-azetidinyl)sulfonyl)-3-piperidinyl)carbonyl)-D-prolinamide]
0.5593 µM	O=C(NCc1ccc(C(F)(F)F)cc1F)[C@H]1CCCN1C(=O)[C@H]1CCCN(S(=O)(=O)N2CC(OCCF)C2)C1 [Example 237, 1-(((3S)-1-((3-(2-fluoroethoxy)-1-azetidinyl)sulfonyl)-3-piperidinyl)carbonyl)-N-(2-fluoro-4-(trifluoromethyl)benzyl)-D-prolinamide]
0.9661 µM	CS(=O)(=O)c1cncc(C(=O)N2CSC[C@@H]2C(=O)N[C@@H](c2ccc(C(F)(F)F)cc2F)C2CC2)c1 [Example 342, (4S)-N-((R)-cyclopropyl(2-fluoro-4-(trifluoromethyl)phenyl)methyl)-3-((5-(methylsulfonyl)-3-pyridinyl)carbonyl)-1,3-thiazolidine-4-carboxamide]
1.4025 µM	CCS(=O)(=O)c1cccc(C(=O)N2[C@@H](C(=O)N[C@@H](c3ccc(Cl)cc3)C3COC3)C[C@H]3C[C@H]32)c1 [Example 403, (1R,3R,5R)-N-((R)-(4-chlorophenyl)(3-oxetanyl)methyl)-2-(3-(ethylsulfonyl)benzoyl)-2-azabicyclo[3.1.0]hexane-3-carboxamide]
0.08898 µM	C[C@@H](NC(=O)[C@H]1CCCN1C(=O)c1cccc(S(=O)(=O)N2CC(C#N)C2)c1)c1ccc(Cl)cc1 [Example 71, N-((1R)-1-(4-chlorophenyl)ethyl)-1-((3-((3-cyano-1-azetidinyl)sulfonyl)phenyl)carbonyl)-D-prolinamide]
